Measurements published in US20250145589A1, “PYRIDINE DERIVATIVE AND USE THEREOF” (SICHUAN HUIYU PHARMACEUTICAL CO., LTD., priority 2021, published 2025).
pIC50: −log10 of the molar value.

Key:
KRAS^G12C-SOS1 = KRAS^G12C-SOS1 (Homo sapiens (Human), UniProt P01116, G12C); assay: HTRF KRAS G12C/SOS1 binding assay; settings: Table 5
In short: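 Compound was serially diluted five-fold over eight points, with a 2 mM DMSO stock. After anti-tag-Tb3+ and anti-tag-XL665 were added, plates were incubated 3 h at 4 °C and read by HTRF (ex 337 nm, em 620/665 nm ratio). IC50 values come from four-parameter variable-slope fits.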

[1] = tested on: NCI-H358-AMGR drug-resistant cell line; assay: NCI-H358-AMGR drug-resistant cell proliferation inhibitory activity test; format: cell-based; settings: 72 h; NCI-H358-AMGR drug-resistant cells, 3 days incubation, CellTiter-Glo
In short: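 Luminescent CellTiter-Glo read-out after 3-day, 37° C compound exposure (8 points, 5-fold series) of AMG510-resistant NCI-H358 cells plated at 4×10^3 per well.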

PI3Kδ = PI3Kδ (Homo sapiens (Human), UniProt O00329); assay: Inhibition of PI3Kδ efficacy assay (ADP-Glo kinase assay); format: biochemical; settings: Table 4; read-out: PI3Kδ inhibitory activity (IC50)
PI3Kδ, sequence (O00329 whole entry): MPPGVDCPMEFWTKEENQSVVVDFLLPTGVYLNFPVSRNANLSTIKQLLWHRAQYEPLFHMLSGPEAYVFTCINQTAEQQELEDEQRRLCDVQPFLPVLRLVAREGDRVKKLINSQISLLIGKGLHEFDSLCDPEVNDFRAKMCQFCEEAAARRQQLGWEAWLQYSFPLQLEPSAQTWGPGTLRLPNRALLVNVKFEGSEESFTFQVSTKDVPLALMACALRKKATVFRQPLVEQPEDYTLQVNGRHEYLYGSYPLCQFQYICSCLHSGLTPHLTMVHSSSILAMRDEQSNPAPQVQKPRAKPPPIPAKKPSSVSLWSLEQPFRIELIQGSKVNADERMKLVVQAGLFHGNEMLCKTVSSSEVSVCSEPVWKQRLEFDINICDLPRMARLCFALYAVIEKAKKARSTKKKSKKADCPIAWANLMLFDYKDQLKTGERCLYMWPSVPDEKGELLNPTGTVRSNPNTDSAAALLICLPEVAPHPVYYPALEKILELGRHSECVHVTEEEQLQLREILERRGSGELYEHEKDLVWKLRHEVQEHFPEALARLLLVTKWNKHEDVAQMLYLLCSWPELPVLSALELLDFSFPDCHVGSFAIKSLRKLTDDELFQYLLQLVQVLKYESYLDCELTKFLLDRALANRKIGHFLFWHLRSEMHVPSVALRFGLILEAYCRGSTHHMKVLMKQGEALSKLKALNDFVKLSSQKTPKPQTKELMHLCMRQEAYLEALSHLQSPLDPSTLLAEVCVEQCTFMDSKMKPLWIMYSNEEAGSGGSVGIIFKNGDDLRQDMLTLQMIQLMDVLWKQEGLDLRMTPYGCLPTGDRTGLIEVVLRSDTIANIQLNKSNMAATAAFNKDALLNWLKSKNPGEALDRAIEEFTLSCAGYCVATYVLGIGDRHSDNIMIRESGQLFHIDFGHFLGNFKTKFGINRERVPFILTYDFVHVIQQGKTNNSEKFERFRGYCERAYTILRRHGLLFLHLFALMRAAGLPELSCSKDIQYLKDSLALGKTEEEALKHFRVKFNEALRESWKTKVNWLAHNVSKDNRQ
PI3Kδ, sequence (P27986 whole entry partner): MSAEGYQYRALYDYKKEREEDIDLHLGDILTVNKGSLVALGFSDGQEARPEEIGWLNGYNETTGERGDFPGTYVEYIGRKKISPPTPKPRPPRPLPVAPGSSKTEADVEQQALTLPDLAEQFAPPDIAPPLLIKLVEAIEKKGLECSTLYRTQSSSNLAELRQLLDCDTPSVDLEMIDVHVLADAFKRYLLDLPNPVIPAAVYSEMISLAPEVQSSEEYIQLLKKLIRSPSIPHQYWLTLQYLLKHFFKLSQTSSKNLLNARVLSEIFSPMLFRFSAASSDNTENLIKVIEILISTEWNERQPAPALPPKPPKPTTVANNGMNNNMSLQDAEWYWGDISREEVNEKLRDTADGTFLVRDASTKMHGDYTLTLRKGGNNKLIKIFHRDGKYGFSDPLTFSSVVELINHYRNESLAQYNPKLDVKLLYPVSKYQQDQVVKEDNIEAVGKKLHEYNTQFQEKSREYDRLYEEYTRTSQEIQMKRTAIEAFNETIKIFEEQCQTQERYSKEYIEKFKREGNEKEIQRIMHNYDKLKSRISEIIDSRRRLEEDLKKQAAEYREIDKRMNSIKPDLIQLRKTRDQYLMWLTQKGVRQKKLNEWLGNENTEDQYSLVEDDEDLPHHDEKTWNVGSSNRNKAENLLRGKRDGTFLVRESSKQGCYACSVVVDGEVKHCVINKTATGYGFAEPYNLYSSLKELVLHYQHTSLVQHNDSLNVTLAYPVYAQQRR
In short: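 Luminescent ADP-Glo readout of PI3Kδ: after a 60 min RT reaction with PI/ATP substrate, ATP depletion (40 min) and ADP detection (40 min) steps followed. Compounds tested as eight five-fold serial dilutions; inhibition rates fitted to log(inhibitor) vs. response, variable slope, for IC50.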

[2] = tested on: NCI-H358 cells (KRAS G12C mutant); assay: NCI-H358 cell proliferation inhibition (CellTiter-Glo); format: cell-based; settings: Homo sapiens, NCI-H358, 72 h; H358 cells (G12C mutation), 3 days, Table 6; read-out: NCI-H358 (IC50)
PI3Kα = PI3Kα (Homo sapiens (Human), UniProt P42336); assay: Inhibition of PI3Kα efficacy assay (ADP-Glo kinase assay); format: biochemical; settings: Table 4; read-out: PI3Kα inhibitory activity (IC50)
PI3Kα, sequence (P42336 whole entry): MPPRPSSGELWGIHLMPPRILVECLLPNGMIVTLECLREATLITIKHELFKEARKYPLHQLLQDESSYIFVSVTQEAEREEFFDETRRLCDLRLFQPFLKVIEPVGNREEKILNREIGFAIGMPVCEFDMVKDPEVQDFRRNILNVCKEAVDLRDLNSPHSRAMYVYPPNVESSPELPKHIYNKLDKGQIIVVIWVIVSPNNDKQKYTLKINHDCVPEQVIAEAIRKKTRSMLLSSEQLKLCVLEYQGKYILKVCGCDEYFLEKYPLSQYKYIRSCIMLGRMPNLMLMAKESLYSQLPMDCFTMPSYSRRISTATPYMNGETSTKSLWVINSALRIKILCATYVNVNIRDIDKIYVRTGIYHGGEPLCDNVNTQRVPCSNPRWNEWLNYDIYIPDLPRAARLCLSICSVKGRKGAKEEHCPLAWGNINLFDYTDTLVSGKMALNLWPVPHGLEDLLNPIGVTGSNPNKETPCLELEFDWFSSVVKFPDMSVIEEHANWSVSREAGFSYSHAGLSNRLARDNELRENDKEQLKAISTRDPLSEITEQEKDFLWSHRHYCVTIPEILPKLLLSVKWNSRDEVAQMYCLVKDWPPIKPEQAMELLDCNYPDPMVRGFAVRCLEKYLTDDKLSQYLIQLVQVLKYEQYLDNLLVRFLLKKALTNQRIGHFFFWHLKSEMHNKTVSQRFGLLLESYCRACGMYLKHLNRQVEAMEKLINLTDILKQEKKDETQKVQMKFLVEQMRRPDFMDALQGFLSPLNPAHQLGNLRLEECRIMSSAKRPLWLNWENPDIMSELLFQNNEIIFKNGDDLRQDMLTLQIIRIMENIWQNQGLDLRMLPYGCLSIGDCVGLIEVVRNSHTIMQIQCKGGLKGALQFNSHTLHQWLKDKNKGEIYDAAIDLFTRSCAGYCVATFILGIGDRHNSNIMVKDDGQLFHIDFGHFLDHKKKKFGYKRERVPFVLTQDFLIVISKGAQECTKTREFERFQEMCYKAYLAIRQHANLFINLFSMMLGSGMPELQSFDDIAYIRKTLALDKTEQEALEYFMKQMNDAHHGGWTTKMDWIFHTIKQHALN
PI3Kα, sequence (P27986 whole entry partner): as the sequence (P27986 whole entry partner) above
In short: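 ADP-Glo luminescent detection of ADP from PI3Kα acting on PI substrate with ATP, 60 min at RT; compounds in 8-point five-fold serial dilution from 2 mM DMSO stock. IC50 from four-parameter variable-slope fit.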

KRAS^G12C-SOS1, sequence (P01116-2 other isoform, or with tags, fused parts or gaps G12C): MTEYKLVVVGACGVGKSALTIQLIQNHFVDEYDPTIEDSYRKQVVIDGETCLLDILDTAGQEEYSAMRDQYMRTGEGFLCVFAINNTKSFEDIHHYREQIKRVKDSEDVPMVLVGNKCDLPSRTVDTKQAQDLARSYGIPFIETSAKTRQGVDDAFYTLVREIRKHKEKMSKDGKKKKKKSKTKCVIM

| Compound | pIC50 (KRAS^G12C-SOS1) | pIC50 [1] | pIC50 (PI3Kδ) | pIC50 [2] | pIC50 (PI3Kα) |
| --- | --- | --- | --- | --- | --- |
| COc1ncc(-c2ccc3ncnc(C4=CCN(C(=O)/C=C/C(C)=O)CC4)c3c2)cc1NS(=O)(=O)c1c(F)cccc1Cl [Example 202, (E)-2-chloro-6-fluoro-N-(2-methoxy-5-(4-(1-(4-oxopent-2-enoyl)-1,2,3,6-tetrahydropyridin-4-yl)quinazolin-6-yl)pyridin-3-yl)benzene-sulfonamide] | 6.85 | 8.02 | 7.55 | 8.28 | 8.72 |
| COc1ncc(-c2ccc3ncnc(C4CCN(C(=O)/C=C/C(C)=O)CC4)c3c2)cc1NS(=O)(=O)c1sc(C)nc1C [Example 203, (E)-N-(2-methoxy-5-(4-(1-(4-oxopent-2-enoyl)piperidin-4-yl)quinazolin-6-yl)pyridin-3-yl)-2,4-dimethylthiazole-5-sulfonamide] | 6.38 | 8.27 | 7.98 | 8.07 | 8.62 |
| COc1ncc(-c2ccc3ncnc(C4CCN(C(=O)/C=C/C(C)=O)CC4)c3c2)cc1NS(=O)(=O)c1ccccc1F [Example 204, (E)-2-fluoro-N-(2-methoxy-5-(4-(1-(4-oxopent-2-enoyl)piperidin-4-yl)quinazolin-6-yl)pyridin-3-yl)benzenesulfonamide] | 6.51 | 7.33 | 7.77 | 7.60 | 8.48 |
| COc1ncc(-c2ccc3ncnc(C4CCN(C(=O)/C=C/C(C)=O)CC4)c3c2)cc1NS(=O)(=O)c1c(F)cccc1F [Example 205, (E)-2,6-difluoro-N-(2-methoxy-5-(4-(1-(4-oxopent-2-enoyl)piperidin-4-yl)quinazolin-6-yl)pyridin-3-yl) benzenesulfonamide] | 6.43 | 7.82 | 8.05 | 7.84 | 8.89 |
| COc1ncc(-c2ccc3ncnc(C4CCN(C(=O)/C=C/C(C)=O)CC4)c3c2)cc1NS(=O)(=O)c1c(F)cccc1Cl [Example 206, (E)-2-chloro-6-fluoro-N-(2-methoxy-5-(4-(1-(4-oxopent-2-enoyl)piperidin-4-yl)quinazolin-6-yl)pyridin-3-yl) benzenesulfonamide] | 6.73 | 8.02 | 7.82 | 8.10 | 8.41 |
| COc1ncc(-c2ccc3ncnc(N4CCN(C(=O)/C=C/C(C)=O)CC4)c3n2)cc1NS(=O)(=O)c1c(F)cncc1F [Example 210, (E)-3,5-difluoro-N-(2-methoxy-5-(4-(4-(4-oxopent-2-enoyl)piperazin-1-yl)pyrido[3,2-d]pyrimidin-6-yl)pyridin-3-yl)pyridine-4-sulfonamide] | 6.88 | 6.54 | 8.23 | 7.27 | 9.27 |
| COc1ncc(-c2ccc3ncnc(N4CCN(C(=O)/C=C/C(C)=O)CC4)c3n2)cc1NS(=O)(=O)c1cc(F)ccc1F [Example 217, (E)-2,5-difluoro-N-(2-methoxy-5-(4-(4-(4-oxopent-2-enoyl)piperazin-1-yl)pyrido[3,2-d]pyrimidin-6-yl)pyridin-3-yl) benzene-sulfonamide] | 6.68 | 7.49 | 7.97 | 7.57 | 9.39 |
| COc1ncc(-c2ccc3ncnc(N4CCN(C(=O)/C=C/C(C)=O)CC4)c3n2)cc1NS(=O)(=O)c1cccc(F)c1F [Example 218, (E)-2,3-difluoro-N-(2-methoxy-5-(4-(4-(4-oxopent-2-enoyl)piperazin-1-yl)pyrido[3,2-d]pyrimidin-6-yl)pyridin-3-yl) benzene-sulfonamide] | 6.53 | 7.87 | 7.97 | 7.59 | 8.59 |
| COc1ncc(-c2ccc3ncnc(N4CCN(C(=O)/C=C/C(C)=O)CC4)c3n2)cc1NS(=O)(=O)c1c(F)cc(F)cc1F [Example 219, (E)-2,4-trifluoro-N-(2-methoxy-5-(4-(4-(4-oxopent-2-enoyl)piperazin-1-yl)pyrido[3,2-d]pyrimidin-6-yl)pyridin-3-yl) benzene-sulfonamide] | 6.82 | 7.80 | 7.94 | 8.14 | 9.04 |
